For twelve compounds, GI50 and TGI results are on record in PubChem BioAssay (NCI).

Some test systems named below: HT29 colon; A498 renal; UACC-62 melanoma; IGROV1 ovarian; SK-MEL-2 melanoma; OVCAR-3 ovarian; SK-MEL-5 melanoma; HCT-116 colon; HL-60(TB) leukemia; NCI-H460 lung.
Experiment in all cases: NCI-60 cell line screen, 48 h

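Dose response: 5 concentrations. Exposure: 48 h. Format: 96-well plates. Endpoint: linear interpolation; highest concentration if not reached. GI50 marks 50% less growth. TGI marks complete inhibition of growth.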

Regarding `CC(=O)Nc1ccc(Sc2ccc([N+](=O)[O-])o2)cc1`, the GI50 in the assay on HT29 colon is 1560 nM; in the assay with A498 renal, 12200 nM; in the assay on UACC-62 melanoma it was 1830 nM; in the assay with IGROV1 ovarian, 1270 nM; in the assay with SK-MEL-2 melanoma it was 2310 nM; in the assay with OVCAR-3 ovarian, 664 nM. The GI50 in the assay with SK-MEL-5 melanoma is 3320 nM; in the assay with HCT-116 colon, 924 nM; with HL-60(TB) leukemia it was 1290 nM; with NCI-H460 lung, 2830 nM. Besides, the TGI came out at 3250 nM in the assay on HT29 colon; 25000 nM with A498 renal; 3840 nM in the assay with UACC-62 melanoma; 4270 nM in the assay on IGROV1 ovarian; 6290 nM in the assay on SK-MEL-2 melanoma; 1950 nM in the assay with OVCAR-3 ovarian. In addition, the TGI in the assay on SK-MEL-5 melanoma was 11400 nM; in the assay with HCT-116 colon it was 2750 nM; in the assay with HL-60(TB) leukemia, 3790 nM; with NCI-H460 lung, 8930 nM.

For `COc1cc(/C=C/c2cc(/C=C/c3ccc(O)c(OC)c3)n(-c3c(C)cccc3C)c(=O)n2)ccc1O`, the GI50 in the assay on HT29 colon was 2130 nM; in the assay on A498 renal, 2400 nM; with UACC-62 melanoma it was 635 nM; in the assay on IGROV1 ovarian, 1240 nM; with SK-MEL-2 melanoma it was 436 nM; in the assay on OVCAR-3 ovarian, 1370 nM. Also, the GI50 with SK-MEL-5 melanoma was 559 nM; in the assay with HCT-116 colon, 695 nM; in the assay on HL-60(TB) leukemia, 271 nM; in the assay on NCI-H460 lung, 683 nM. Moreover, the TGI with HT29 colon turned out to be 4710 nM; in the assay on A498 renal it was 6080 nM; in the assay with UACC-62 melanoma it was 3280 nM; with IGROV1 ovarian it was 6870 nM; in the assay on SK-MEL-2 melanoma, 1730 nM; with OVCAR-3 ovarian, 6600 nM. The TGI in the assay with SK-MEL-5 melanoma is 1900 nM; in the assay on HCT-116 colon, 3380 nM; in the assay with HL-60(TB) leukemia it was 1110 nM; in the assay with NCI-H460 lung, 4370 nM.

Take `C=C1C[C@](OC)([C@H](O)C(=O)N[C@@H](OC)[C@@H]2C[C@@H](O)C(C)(C)[C@@H](C[C@@H](COC)OC)O2)O[C@H](C)[C@@H]1C`: the GI50 in the assay on HT29 colon is 0.865 nM; in the assay on A498 renal, 1.04 nM; in the assay on UACC-62 melanoma, 1.53 nM; with IGROV1 ovarian it was 2.95 nM; with SK-MEL-2 melanoma, 2.3 nM; in the assay with OVCAR-3 ovarian it was 1.17 nM. For the same compound, the values for the GI50 with HCT-116 colon, with HL-60(TB) leukemia and in the assay on NCI-H460 lung were 1.68 nM, 4.11 nM and 0.72 nM, respectively. The TGI in the assay on HT29 colon amounted to 17.7 nM; in the assay on A498 renal, 2.88 nM; in the assay on UACC-62 melanoma, 5.24 nM; in the assay with IGROV1 ovarian, 16.1 nM; in the assay with SK-MEL-2 melanoma it was 25 nM; in the assay with OVCAR-3 ovarian, 3.68 nM. Besides, the TGI in the assay with SK-MEL-5 melanoma is 0.262 nM; with HCT-116 colon, 10.4 nM; in the assay with HL-60(TB) leukemia it was more than 1000 nM; in the assay with NCI-H460 lung it was 2.66 nM.

Take `COc1cccc(C2C(C#N)=C(N)Oc3cc(N)ccc32)c1` (centres undefined): the GI50 is 360 nM with HT29 colon; 203 nM in the assay with A498 renal; 368 nM in the assay with UACC-62 melanoma; 854 nM in the assay with IGROV1 ovarian; 397 nM with SK-MEL-2 melanoma; 337 nM in the assay on OVCAR-3 ovarian. Also, the GI50 was 396 nM in the assay with SK-MEL-5 melanoma, 383 nM with HCT-116 colon, 350 nM with HL-60(TB) leukemia and 368 nM in the assay with NCI-H460 lung. The TGI was 5030 nM in the assay on HT29 colon; more than 100000 nM in the assay on UACC-62 melanoma; more than 100000 nM in the assay with IGROV1 ovarian; more than 100000 nM in the assay with SK-MEL-2 melanoma; 1030 nM with OVCAR-3 ovarian; more than 61800 nM in the assay on SK-MEL-5 melanoma. For the same compound, the TGI is more than 72200 nM in the assay on HCT-116 colon, 745 nM in the assay on HL-60(TB) leukemia and more than 87000 nM with NCI-H460 lung.

In the case of `CCC[CH2][Sn]([CH2]CCC)([O]C(=O)c1cc(F)cc(F)c1)[O]C(=O)c1cc(F)cc(F)c1`, the GI50 in the assay on HT29 colon is 1650 nM; in the assay on A498 renal, 1490 nM; in the assay with UACC-62 melanoma, 1110 nM; in the assay with IGROV1 ovarian, 1550 nM; with SK-MEL-2 melanoma it was 298 nM; in the assay with OVCAR-3 ovarian, 1360 nM. Besides, the GI50 was 1340 nM in the assay with SK-MEL-5 melanoma, 1270 nM with HCT-116 colon, 409 nM in the assay on HL-60(TB) leukemia and 1540 nM with NCI-H460 lung. Further, the TGI is 3060 nM with HT29 colon; 2830 nM in the assay on A498 renal; 2310 nM in the assay with UACC-62 melanoma; 2940 nM in the assay on IGROV1 ovarian; 1240 nM in the assay with SK-MEL-2 melanoma; 2650 nM with OVCAR-3 ovarian. Moreover, the TGI with SK-MEL-5 melanoma turned out to be 2610 nM; in the assay on HCT-116 colon, 2540 nM; in the assay with HL-60(TB) leukemia, 2170 nM; in the assay on NCI-H460 lung, 3020 nM.

With `CC(C)CCOc1ccc(-c2n[nH]c(C(F)(F)F)c2-c2cncc(C#N)c2)c(O)c1`, the GI50 in the assay on HT29 colon is 2920 nM; with A498 renal, 1750 nM; in the assay with UACC-62 melanoma, 1220 nM; in the assay on IGROV1 ovarian, 3350 nM; in the assay with SK-MEL-2 melanoma, 1750 nM; in the assay on OVCAR-3 ovarian, 3170 nM. Besides, the GI50 was 943 nM with SK-MEL-5 melanoma, 2610 nM with HCT-116 colon, 1980 nM with HL-60(TB) leukemia and 2500 nM in the assay on NCI-H460 lung. Moreover, the TGI with HT29 colon was 14100 nM; with A498 renal it was 6640 nM; in the assay on UACC-62 melanoma it was 5380 nM; in the assay with IGROV1 ovarian, more than 100000 nM; in the assay with SK-MEL-2 melanoma, 5300 nM; in the assay on OVCAR-3 ovarian it was 16300 nM. Moreover, the TGI in the assay with SK-MEL-5 melanoma is 2570 nM; with HCT-116 colon, 10500 nM; in the assay on HL-60(TB) leukemia, 5470 nM; with NCI-H460 lung, 12500 nM.

Take `ClC1=C(Cl)C(Cl)=C(Cl)C1=C/C=C/c1ccccc1`: the GI50 in the assay with HT29 colon is 319 nM; with A498 renal it was 590 nM; in the assay on UACC-62 melanoma, 191 nM; in the assay on SK-MEL-2 melanoma, 256 nM; in the assay on OVCAR-3 ovarian, 239 nM; in the assay on SK-MEL-5 melanoma it was 196 nM. Further, the GI50 with HCT-116 colon was 213 nM; in the assay with HL-60(TB) leukemia, 329 nM; with NCI-H460 lung, 326 nM. Also, the TGI with HT29 colon is 1160 nM; in the assay with A498 renal, 1220 nM; in the assay with UACC-62 melanoma, 467 nM; with IGROV1 ovarian it was 45.5 nM; in the assay with SK-MEL-2 melanoma, 678 nM; in the assay on OVCAR-3 ovarian, 532 nM. Moreover, the values for the TGI with SK-MEL-5 melanoma, in the assay on HCT-116 colon and with NCI-H460 lung were 563 nM, 457 nM and 2300 nM, respectively.

Consider `COC1=CC(O)(CC(N)=O)c2ccccc2C1=O` (centres undefined), for which the TGI in the assay with HT29 colon, in the assay with A498 renal, in the assay with UACC-62 melanoma, with IGROV1 ovarian, with SK-MEL-2 melanoma and with OVCAR-3 ovarian was more than 100000 nM each time. The TGI with SK-MEL-5 melanoma, in the assay on HCT-116 colon, with HL-60(TB) leukemia and in the assay with NCI-H460 lung was more than 100000 nM in each case.

As for `CC(=O)c1ccc(NC(=O)CSc2nnc(-c3cc(-c4ccc(C)cc4)nc4ccccc34)o2)cc1`, the GI50 in the assay on A498 renal was 2300 nM; in the assay with UACC-62 melanoma it was 24200 nM; in the assay on IGROV1 ovarian it was 3310 nM; with SK-MEL-2 melanoma, 12300 nM; with OVCAR-3 ovarian, 3220 nM; in the assay on SK-MEL-5 melanoma it was 3420 nM. The GI50 was 2250 nM in the assay on HCT-116 colon, more than 100000 nM with HL-60(TB) leukemia and 2360 nM in the assay with NCI-H460 lung. In addition, the TGI in the assay on A498 renal is 7500 nM; with UACC-62 melanoma, more than 100000 nM; in the assay with IGROV1 ovarian, more than 100000 nM; in the assay with SK-MEL-2 melanoma, 31200 nM; with OVCAR-3 ovarian, more than 100000 nM; in the assay on SK-MEL-5 melanoma, more than 100000 nM. Besides, the TGI with HCT-116 colon was 6100 nM; in the assay on HL-60(TB) leukemia, more than 100000 nM; in the assay with NCI-H460 lung it was 6040 nM.

For `COC(=O)c1ccc2c(c1)nc(-c1cc3ccccc3[nH]c1=O)n2-c1cc(C(C)(C)C)[nH]n1`, the GI50 in the assay on HT29 colon is 1340 nM; with A498 renal, 3990 nM; in the assay with IGROV1 ovarian, 1230 nM; in the assay with SK-MEL-2 melanoma, 2820 nM; in the assay on OVCAR-3 ovarian, 4500 nM; in the assay with SK-MEL-5 melanoma, 2610 nM. Further, the results for the GI50 with HCT-116 colon, in the assay with HL-60(TB) leukemia and in the assay with NCI-H460 lung were 1740 nM, 2170 nM and 784 nM, respectively. Moreover, the TGI is more than 100000 nM in the assay on HT29 colon; more than 87700 nM in the assay on A498 renal; more than 100000 nM with IGROV1 ovarian; more than 100000 nM in the assay on SK-MEL-2 melanoma; more than 100000 nM in the assay on OVCAR-3 ovarian; more than 100000 nM in the assay on SK-MEL-5 melanoma. Besides, the TGI in the assay with HCT-116 colon, in the assay with HL-60(TB) leukemia and in the assay on NCI-H460 lung was more than 100000 nM each time.

In the case of `CCN(CC)c1cc(/C=C/c2ccc(OC)c(OC)c2)nc2cc(F)c(F)cc12`, the GI50 in the assay with A498 renal was 1950 nM; with UACC-62 melanoma it was 7040 nM; with IGROV1 ovarian it was 3460 nM; in the assay with SK-MEL-2 melanoma, 1830 nM; in the assay on OVCAR-3 ovarian, 5540 nM; with SK-MEL-5 melanoma, 6330 nM. The GI50 in the assay with HCT-116 colon is 5350 nM; in the assay with HL-60(TB) leukemia, 12200 nM; in the assay on NCI-H460 lung, 67800 nM. The TGI is 6200 nM with A498 renal; more than 100000 nM in the assay on UACC-62 melanoma; 12000 nM with IGROV1 ovarian; 3450 nM in the assay on SK-MEL-2 melanoma; 33300 nM in the assay on OVCAR-3 ovarian; more than 100000 nM in the assay on SK-MEL-5 melanoma. Further, the results for the TGI with HCT-116 colon, with HL-60(TB) leukemia and in the assay on NCI-H460 lung were 17500 nM, 31300 nM and more than 100000 nM, respectively.

Take `CCOC(=O)N1CCc2cc(OC)c(OC)c3c2C1CC3=O` (centres undefined): the TGI with HT29 colon, in the assay with A498 renal, in the assay on UACC-62 melanoma, in the assay with IGROV1 ovarian, in the assay with SK-MEL-2 melanoma and in the assay on SK-MEL-5 melanoma was more than 100000 nM in each case. The TGI with HCT-116 colon, in the assay with HL-60(TB) leukemia and in the assay on NCI-H460 lung was more than 100000 nM each time.
